From patent publication US20090042963A1 (priority 2005, published 2009)

Test system: Pyricularia oryzae
Assay type: cell-based
Settings: single active compound, Conc. 1 ppm; microtiter plate, malt-based medium, 18° C., measured at 405 nm on day 7 after inoculation

Structure (SMILES) | Observed effect (%)
CC(C)(C)C(O)(CCc1ccc(Cl)cc1)Cn1cncn1 (centres unmarked) [Tebuconazole, tebuconazole] | 2%
Fc1ccc(C2(Cn3cncn3)OC2c2ccccc2Cl)cc1 (centres unmarked) [Epoxiconazole, epoxiconazole] | 0%
